Assay results reported in patent US6534063B1, “Methods for treating pervasive development disorders” (priority 1999, dated 2003).
No end group written: not given here.

Key:
[1] = system: children diagnosed with Autism; details: secretin given as diagnostic procedure during upper gastrointestinal endoscopy; cited from earlier work
fecal chymotrypsin level = experiment: Fecal Chymotrypsin Test after secretin infusion, 16 autistic children (Experiment 1); assay type: in vivo; details: each of 16 autistic children; approximately one week after first secretin infusion, 1 U/kg IV; compared with pre-secretin levels
Procedure: (§1) In this experiment, 16 children diagnosed as having autism were administered the following Fecal Chymotrypsin Test in accordance with an embodiment of the invention. First, approximately 2 grams of stool were collected from each child and placed in a sterile container (although it is to be understood that any quantity of stool may be collected, as 2 grams of stool is not a required amount). Each stool sample was then analyzed using, e.g., an enzymatic photospectrometry analysis as is known by those skilled in the art, to determine the level of fecal chymotrypsin in the stool. Although the enzymatic photospectrophotometry process is preferred, any suitable conventional method may be used for measuring the fecal chymotrypsin levels. The measured chymotrypsin levels of the 16 autistic children are illustrated in FIG. 13.
After determining the chymotrypsin levels of the stools, each of these levels were compared with threshold chymotrypsin levels to determine if the child was likely to benefit from secretin administration. By way of example, with the fecal chymotrypsin tests of the stool samples being performed at 30° C., normal levels of chymotrypsin are deemed to lie above 8.4 U/gram, whereas pathologically abnormal levels are deemed to lie below 4.2 U/gram. […]

[2] = system: children diagnosed as having autism; experiment: CARS (Childhood Autism Rating Scale) test pre- and post-secretin (Experiment 1); assay type: in vivo; details: 16 autistic children
Procedure: Upon determining that a given child was likely to benefit from secretin administration based on the results of the fecal chymotrypsin test, the child was administered a CARS (Childhood Autism Rating Scale) test prior to being scheduled for secretin infusion.
For each of the 16 autistic children tested, a preferred secretin infusion process according to the present invention was performed involving the administering of 1 U/kg of body weight of Secretin-Ferring for a period of nine months at intervals of approximately 6 weeks. In addition, another CARS test was administered to each of the 16 autistic children 3 weeks post secretin administration to determine if their autism had changed post infusion.
A preferred secretin infusion process includes the initial step of prepping an arm of the candidate child with an IV injection of saline. A test dose of 1 U of Secretin-Ferring is then administered to the child. Approximately one minute after infusion, the child is examined for signs of allergic reaction including rash, increased heart rate, and increase of blood pressure. […] Subsequently, each child receives a 1 U/kg of body weight infusion of Secretin-Ferring approximately every 6 weeks for 9 months. It is to be understood that any commercially available form of secretin may be used.

[3] = system: fecal chymotrypsin (FC) levels; experiment: Weekly fecal chymotrypsin test during 6 months of secretin, 37 autistic children (Experiment 2); assay type: in vivo; details: 6 months post-secretin administration; of 37 children, all abnormal pre-secretin
Procedure: as §1
After determining the chymotrypsin levels of the stools, each of these levels were compared with threshold chymotrypsin levels to determine if the child was likely to benefit from secretin administration. By way of example, with the fecal chymotrypsin tests of the stool samples being performed at 30° C., normal levels of chymotrypsin are deemed to lie above 8.4 U/gram, whereas pathologically abnormal levels are deemed to lie below 4.2 U/gram. In addition, chymotrypsin levels between 8.4 U/gram and 4.2 U/gram are considered equivocal, and further testing of the individual's fecal chymotrypsin levels over a period of time should be performed.
A preferred secretin infusion process includes the initial step of prepping an arm of the candidate child with an IV injection of saline. A test dose of 1 U of Secretin-Ferring is then administered to the child. […]
In this experiment, 37 autistic children with abnormal fecal chymotrypsin levels were administered secretin over the course of 6 months using the secretin infusion process described above. Their fecal chymotrypsin (FC) levels were measured weekly using the fecal chymotrypsin test described above.

Substance: secretin (HSDGTFTSELSRLRDSARLQRLLQGLV-NH2; ends and bridges not checked; UniProt P63298 33-59, looked up) [gastrointestinal peptide hormone]
- symptoms associated with Autism [1]: ameliorating the symptoms associated with Autism
- fecal chymotrypsin level post-secretin administration (fecal chymotrypsin level): increased
- CARS component scores (all except fear) ([2]; 3 weeks post infusion): demonstrated improvement
- CARS fear component score ([2]; 3 weeks post infusion): increased
- CARS scores (overall) ([2]; approximately 3 weeks after first secretin administration vs pre-secretin): overall decrease
- # Autistic Children w/Abnormal FC levels [3]: 1
- # Autistic Children w/Equivocal FC levels [3]: 2
- # Autistic Children w/normal FC levels [3]: 34
